Experiment [1] deals with Htt-Q74 expressing PC12 cells. The experiment is described as follows: Hsp70 immunoblot after CK2 inhibitor pre-treatment, Htt-Q74 induction and heat shock. The format is cell-based, rat. The settings on record: 0.5, 1 and 5 μM for 15 h prior to doxycycline induction; heat shock 42° C. 1 h, 7 h recovery. As for the experimental part:
Then cells were either not treated (−Dox) or treated with doxycycline at 1 microgram/mL during 3 days (+Dox) at 37° C. Cells were then heat shocked at 42° C. (1 h) followed by 7 h recovery (HS) at 37° C. Total protein was analyzed by SDS-PAGE and immunoblotting for Hsp70 and GAPDH. (D) Cells from CK2 kinase inhibitor treatment were analyzed by fluorescence microscopy using GFP as a marker for Htt-Q74 aggregation and the number of cells with inclusions bodies was quantified and normalized with total cell number from DIC images, as a measure of Htt-Q74 protein aggregation. Data are presented as mean±SE from three separate experiments (* P<0.05, ** P<0.01). (E) Htt-Q74 PC12 cells were incubated at 37° C. in a 96-well plate in the presence of either DMSO or the kinase inhibitor TID43 at 5 microMolar final concentration during 15 h prior to Htt-Q74 induction by doxycycline. Cells were then either not treated or treated with doxycycline at 1 microgram/mL for 3 days (+Dox) at 37° C. and then heat shocked at 42° C. (1 h) followed by 7 h recovery (HS) at 37° C. Cell viability was analyzed using the Cell Titer Glo assay (Promega) and values were expressed as percentage of viable cells compared with untreated cells at 37° C. Data are presented as means±SE from three separate experiments (* P<0.05). […]
A general note: In western blotting, separated proteins are transferred to a membrane and probed.

Another experiment has as its system HD cell models. As to the kind of experiment: HSF1 levels revived with CK2 inhibitors in HD cell models. Type of experiment: cell-based.

Each structure is given as a SMILES string.

The results in this text go back to US20170227553A1, “COMPOSITIONS AND METHODS FOR IDENTIFYING AND TREATING CONDITIONS INVOLVING HSF1 ACTIVITY” (Duke University, priority 2014, published 2017).

For `Cn1cc(C2=C(c3ccc(Cl)cc3Cl)C(=O)NC2=O)c2ccccc21` [SB216763], the “HSF1 activation, Hsp70 expression levels (immunoblot)” value in experiment [1] is given as “rescue HSF1 activation, Hsp70 expression levels”. Moreover, in the experiment with HD cell models, the HSF1 levels entry is on record as “revived”.

On to `O=C(O)c1c[nH]c2c(Cl)c(Cl)ccc2c1=O` [Cay10577, 7,8-dichloro-1,4-dihydro-4-oxo-3-quinolinecarboxylic acid], for which the HSF1 levels entry in the experiment with HD cell models was “revived”.

For the compound `Brc1c(Br)c(Br)c2[nH]cnc2c1Br` [TBBz], the HSF1 levels result with HD cell models is “revived”.

As for `Cc1cc(O)c2c(c1)C(=O)c1cc(O)cc(O)c1C2=O` [Emodin], the “HSF1 activation, Hsp70 expression levels (immunoblot)” value in experiment [1] is listed as “rescue HSF1 activation, Hsp70 expression levels”.
